Patent US8019412B2, “Apparatus for facilitating transdermal delivery of therapeutic substances and method of transdermally delivering therapeutic substances” (International Scientific Pty Ltd., priority 2003, dated 2011)

System: excised human epidermal membranes
Assay type: in vitro ADME
Text: In an experimental example, penetration of caffeine through excised human epidermal membranes was investigated using Franz-type diffusion cells and standard procedures. An electromagnetic field pattern was created and the penetration results compared with passive diffusion. The electromagnetic field pattern used was generated by applying an energisation signal having 12 pulses at a repeating frequency of 10 Hz to a coil Each of the pulses has a duration of approximately 360 μs. A phosphate buffered saline receptor solution was used and the amount of caffeine in the receptor solution determined by HPLC with UV detection at regular time intervals up to 6 hours post application of the electromagnetic field. In this example, the electromagnetic field pattern was applied for approximately 30 minutes.
Similar experiments were carried out with electromagnetic fields generated by applying an energisation signal having 15 pulses of 360 μs duration at a repeating frequency of 20 Hz to a coil, and by applying an energisation signal having 255 pulses at a repeating frequency of 2 Hz to a coil. These experiments yielded caffeine flux values of 7.20 μgcm^−2h^−1 and 8.51 μgcm^−2h^−1, although the latter of these experiments produced an effect only after 60 minutes.
A further experiment was carried out by applying an energisation signal having a single quasi-rectangular pulse repeated at 72 Hz to a coil.

For `Cn1c(=O)c2c(ncn2C)n(C)c1=O` [caffeine], the “caffeine flux associated with passive diffusion” value was roughly 4.1 μgcm^−2h^−1, the “highest caffeine flux achieved with electromagnetic field pattern” value was 19.24 μgcm^−2h^−1 and the “time after which an effect was produced” value was no less than 60 min.
